Patent US20120088667A1, “SAFENING AGENT” (priority 2009, published 2012)
Read-outs that look alike come from different tables or passages of the source.

Assays:
Winter Wheat cv Limerick = assay: Safening of fertilisers, pot trial: phytotoxicity and vigour scores, winter wheat; assay type: in vivo; conditions: for Phytotoxicity (0-9) (0 = Dead) + 14 Days / Phytotoxicity (0-9) (0 = Dead) + 28 Days: score 0-9, 0 = dead; for Vigour (0-9) (9 = Most Vigour) + 14 days / Vigour (0-9) + 28 Days: score 0-9
Source text: (§1) The safening system and the fertilizer were applied either simultaneously or sequentially.
(§2) Sprayed: mid-tillering phase (GS23). Winter Wheat: cv Limerick, sown 4 Jun. […] Sprayed: mid-tillering phase (GS23). Lettuce: cv Set, sown 10 Jul. 2008, at one seed per pot, in John Innes No 1 compost. Date of spraying: 30 July; Dates of measurement: 7 August, 14 August, 28 August. Sprayed: 2 true leaf stage.

Lettuce cv Set = assay: Safening of fertilisers, pot trial: phytotoxicity and vigour scores, lettuce; assay type: in vivo
Source text: as §1, §2

[1] = tested on: Oilseed rape cv Excalibur; conditions: for Greenness (0-9) (9 = Deeper Green) + 14 Days / Vigour (0-9) (9 = Most Vigour) + 14 days / Greenness (0-9) + 28 Days / Vigour (0-9) + 28 Days: score 0-9
Source text: Safening systems were applied to crops of oilseed rape and winter treated with various herbicides (Bifenox (with insecticide), Carbetamide, Propaquizafop, Chlorotoluron, Isoproturon, Flumioxazin). The safening system and the herbicide were applied to the crops either simultaneously or sequentially.
Oilseed rape: cv Excalibur, sown 26 Apr. 2008, at two seeds per 9 cm pot, sown in normal pH multi-purpose compost. Date of spraying: 6 June; Dates of measurement/scoring: 13 June, 20 June, 5 July. Winter wheat: cv Alchemy, sown 23 Apr. 2008, at seven seeds per 9 cm pot, sown in normal pH multi-purpose compost. Date of spraying: 24 May; Dates of measurement/scoring: 31 May, 7 June, 21 June. SAF: at least one from class (f) each at <3 g/l, plus at least one from class (c).
Statistical Layout: Randomised Complete Block trials, under glasshouse conditions, United Kingdom.

Glycine max (Soybean) = assay: Root nodulation and safening, soybean, compost of normal pH (Example 7.2); conditions: compost of normal pH (6.5)
Source text: (§3) The safener/safening system and the fertiliser were applied to the crops either simultaneously or sequentially.
(§4) Co=100% Cobalt Sulphate (20 g per litre and per hectare). FF1=20 g per litre Cobalt Sulphate (as per Co above) plus “Miracle-Gro” at xl recommended rate (applied at 15 g per 2.5 sq metres). Miracle-Gro contains: 24% N, 4% P, 13% K, plus 0.02% B, 0.03% Cu, 0.19% Fe, 0.05% Mn, 0.001% Mo and 0.03% Zn. FF2=20 g per litre Cobalt Sulphate plus Miracle-Gro at ×2 recommended rate. SAF: at least one from class (f) each at <3 g/l, plus at least one from class (c).
Dates as per Example 7.1 above, but sown in compost of normal pH (6.5). Each treatment represents the mean values for 12 plants, within four replicates. Sowing density 110 kg/ha. Standard inoculant applied at sowing.

NAVY BEAN cv Mogex = assay: Root nodulation and safening, navy bean, compost of low pH (Example 7.3); conditions: compost of low pH (5.0-5.5)
Source text: as §3, §4
NAVY BEAN cv Mogex. Scored/Counted+28 Days after Spraying. Sown in Compost of low pH (5.0-5.5) on 29 Apr. 2008. Spray Date (VC)=27 May, V1 Date=16 June. Scored/Measured on 11 July. Each treatment represents the mean value of 12 plants, within four replicates. No inoculum applied.

PEA cv Ragtime = assay: Root nodulation, rooting and safening, pea, compost of low pH (Examples 7.5 and 7.7)
Source text: as §3, §4
PEA—TRIAL 5—cv Ragtime. Scored/Counted+28 Days after Spraying. Sown in Compost of Low pH (5.0-5.5) on 28 Apr. 2008. Spray Date (VC)=26 May, V1 Date=14 June. Scored/Measured on 9 July. […] No inoculum applied.
Sowing details etc as per Example 7.5.

[2] = tested on: Maize cv Sundance (i.e. not Roundup Ready); conditions: no glyphosate
[3] = Table 1.4, winter wheat, phosphite fertiliser (KP)
[4] = Table 1.5, winter wheat, KP/ATS
[5] = Table 1.6, winter wheat, general fertilisers
[6] = Table 1.7, lettuce, phosphite fertiliser (KP), score 0-9, 0 = dead
[7] = Table 1.7, lettuce, phosphite fertiliser (KP), score 0-9
[8] = Table 1.8, lettuce, KP/ATS, score 0-9
[9] = Table 1.9, lettuce, general fertilisers, score 0-9, 0 = Dead
[10] = herbicide Bifenox (with insecticide), Table 3.1
[11] = herbicides Carbetamide and Propaquizafop, Table 3.2
[12] = +28 days, herbicide Bifenox (with insecticide), Table 3.1
[13] = +28 days, herbicides Carbetamide and Propaquizafop, Table 3.2
[14] = compost of low pH (5.0-5.5), V1, score 0-9
[15] = low pH compost, application at V1, 0-9 scale

Nc1ccccc1C(=O)O [AN, anthranilic acid] was tested, and the “Phytotoxicity (0-9) (0 = Dead) + 14 Days” value (Winter Wheat cv Limerick; [3]) was 7.5, the “Phytotoxicity (0-9) (0 = Dead) + 28 Days” value (Winter Wheat cv Limerick; [3]) was 8.0 and the “Vigour (0-9) (9 = Most Vigour) + 14 days” value (Winter Wheat cv Limerick; [3]) was 8.0. For the same molecule, the “Vigour (0-9) + 28 Days” value (Winter Wheat cv Limerick; [3]) was 8.5, the “Phytotoxicity (0-9) (0 = Dead) + 28 Days” value (Winter Wheat cv Limerick; [4]) was 8.0 and the “Vigour (0-9) (9 = Most Vigour) + 14 days” value (Winter Wheat cv Limerick; [4]) was 8.0. For the same molecule, the “Vigour (0-9) + 28 Days” value (Winter Wheat cv Limerick; [4]) was 8.5, the “Phytotoxicity (0-9) (0 = Dead) + 14 Days” value (Winter Wheat cv Limerick; Table 1.5, winter wheat, thiosulphate and phosphite fertilisers (KP/ATS)) was 7.5 and the “Phytotoxicity (0-9) (0 = Dead) + 14 Days” value (Winter Wheat cv Limerick; Table 1.6, winter wheat, general NPK fertilisers (GEN + KP, GENEX)) was 7.5. For the same molecule, the “Phytotoxicity (0-9) (0 = Dead) + 28 Days” value (Winter Wheat cv Limerick; [5]) was 8.0, the “Vigour (0-9) (9 = Most Vigour) + 14 days” value (Winter Wheat cv Limerick; [5]) was 8.0 and the “Vigour (0-9) + 28 Days” value (Winter Wheat cv Limerick; [5]) was 8.5. The “Phytotoxicity (0-9) (0 = Dead) + 14 Days” value (Lettuce cv Set; [6]) was 7.0, the “Phytotoxicity (0-9) (0 = Dead) + 28 Days” value (Lettuce cv Set; [6]) was 7.0 and the “Vigour (0-9) (9 = Most Vigour) + 14 days” value (Lettuce cv Set; [7]) was 8.0. The “Vigour (0-9) + 28 Days” value (Lettuce cv Set; [7]) was 8.0, the “Phytotoxicity (0-9) (0 = Dead) + 14 Days” value (Lettuce cv Set; Table 1.8, lettuce, KP + ammonium thiosulphate (KP/ATS), score 0-9, 0 = dead) was 7.0 and the “Phytotoxicity (0-9) (0 = Dead) + 28 Days” value (Lettuce cv Set; Table 1.8, lettuce, KP/ATS, score 0-9, 0 = dead) was 7.0. For the same molecule, the “Vigour (0-9) (9 = Most Vigour) + 14 days” value (Lettuce cv Set; [8]) was 8.0, the “Vigour (0-9) + 28 Days” value (Lettuce cv Set; [8]) was 8.0 and the “Phytotoxicity (0-9) (0 = Dead) + 14 Days” value (Lettuce cv Set; [9]) was 7.0. For the same molecule, the “Phytotoxicity (0-9) (0 = Dead) + 28 Days” value (Lettuce cv Set; [9]) was 7.0, the “Vigour (0-9) (9 = Most Vigour) + 14 days” value (Lettuce cv Set; Table 1.9, lettuce, general fertilisers, score 0-9, 9 = Most Vigour) was 8.0 and the “Vigour (0-9) + 28 Days” value (Lettuce cv Set; Table 1.9, lettuce, general fertilisers, score 0-9) was 8.0. For the same molecule, the “Phytotoxicity (0-9) (0 = Dead) + 14 Days” value ([1]; score 0-9, 0 = dead, herbicide Bifenox (with insecticide), Table 3.1) was 9.0, the “Phytotoxicity (0-9) (0 = Dead) + 14 Days” value ([1]; score 0-9, 0 = dead, herbicides Carbetamide and Propaquizafop, Table 3.2) was 9.0 and the “Phytotoxicity (0-9) (0 = Dead) + 28 Days” value ([1]; score 0-9, 0 = dead, +28 days, herbicide Bifenox (with insecticide), Table 3.1) was 8.0. The “Phytotoxicity (0-9) + 28 Days” value ([1]; score 0-9, 0 = dead, +28 days, herbicides Carbetamide and Propaquizafop, Table 3.2) was 8.0, the “Greenness (0-9) (9 = Deeper Green) + 14 Days” value [1, 10] was 8.0 and the “Vigour (0-9) (9 = Most Vigour) + 14 days” value [1, 10] was 9.0. The “Greenness (0-9) (9 = Deeper Green) + 14 Days” value [1, 11] was 8.0, the “Vigour (0-9) (9 = Most Vigour) + 14 days” value [1, 11] was 9.0 and the “Greenness (0-9) + 28 Days” value [1, 12] was 8.0. For the same molecule, the “Vigour (0-9) + 28 Days” value [1, 12] was 8.0, the “Greenness (0-9) + 28 Days” value [1, 13] was 8.0 and the “Vigour (0-9) + 28 Days” value [1, 13] was 8.0. The “Nodules Per Plant (V1)” value (Glycine max (Soybean); V1, mean of 12 plants) was 34.2, the “Nodulation Score (0-9) (V1)” value (Glycine max (Soybean); V1, score 0-9) was 5.9 and the “Phyto-Toxicity Score (0-9) (V1)” value (Glycine max (Soybean); V1, score 0-9) was 8.0. For the same molecule, the “Vigour Score (0-9) (V1)” value (Glycine max (Soybean); V1, score 0-9) was 6.7, the “Nodules Per Plant (VC)” value (Glycine max (Soybean); VC) was 33.3 and the “Nod Score (0-9) (VC)” value (Glycine max (Soybean); VC, score 0-9) was 5.8. For the same molecule, the “Nodules Per Plant (V1)” value (NAVY BEAN cv Mogex; V1, +28 days after spraying, no inoculum) was 20.9, the “Nodulation Score (0-9) (V1)” value (NAVY BEAN cv Mogex; V1, score 0-9) was 3.3 and the “Phyto-Toxicity Score (0-9) (V1)” value (NAVY BEAN cv Mogex; V1, score 0-9) was 6.0. For the same molecule, the “Vigour Score (0-9) (V1)” value (NAVY BEAN cv Mogex; V1, score 0-9) was 6.0, the “Nodules Per Plant (VC)” value (NAVY BEAN cv Mogex; VC) was 23.4 and the “Nod Score (0-9) (VC)” value (NAVY BEAN cv Mogex; VC, score 0-9) was 3.8. The “Nodules Per Plant (V1)” value (PEA cv Ragtime; compost of low pH (5.0-5.5), V1, +28 days after spraying, no inoculum) was 16.8, the “Nodulation Score (0-9) (V1)” value (PEA cv Ragtime; [14]) was 5.0 and the “Phyto-Toxicity Score (0-9) (V1)” value (PEA cv Ragtime; [14]) was 5.2. The “Vigour Score (0-9) (V1)” value (PEA cv Ragtime; [14]) was 5.5, the “Nodules Per Plant (VC)” value (PEA cv Ragtime; compost of low pH (5.0-5.5), VC) was 17.3 and the “Nod Score (0-9) (VC)” value (PEA cv Ragtime; compost of low pH (5.0-5.5), VC, score 0-9) was 5.2. The “Nodules Per Plant (V1)” value (PEA cv Ragtime; low pH compost, application at V1 (data from Example 7.5)) was 16.8, the “Nodulation Score (0-9) (V1)” value (PEA cv Ragtime; [15]) was 5.0 and the “Phyto-Toxicity Score (0-9) (V1)” value (PEA cv Ragtime; [15]) was 5.2. For the same molecule, the “Rooting Score (0-9) (V1)” value (PEA cv Ragtime; [15]) was 4.2, the “Phytotoxicity (0-9) (0 = Dead) + 14 Days” value ([2]; scale 0-9, 0=dead, 9=least phytotoxicity, 14 days after spraying) was 8.0 and the “Phytotoxicity (0-9) (0 = Dead) + 28 Days” value ([2]; scale 0-9, 0=dead, 9=least phytotoxicity, 28 days) was 8.0. For the same molecule, the “Phytotoxicity (0-9) (0 = Dead) + 41 days” value ([2]; scale 0-9, 0=dead, 9=least phytotoxicity, 41 days) was 8.0, the “Vigour (0-9) + 14 Days” value ([2]; scale 0-9, 0=least vigour, 9=most vigour, 14 days) was 8.0 and the “Vigour (0-9) + 28 Days” value ([2]; scale 0-9, 0=least vigour, 9=most vigour, 28 days) was 8.0. For the same molecule, the “Vigour (0-9) + 41 Days” value ([2]; scale 0-9, 0=least vigour, 9=most vigour, 41 days) was 8.0.
